Series [1] has as its system J20 mice. As to the kind of experiment: Long-term potentiation recordings, hippocampal slices of J20 mice. Type of series: in vivo. To be noted: single TOP injection 275 μg, vs PBS treated J20 mice. On the procedure:
Long-term potentiation (LTP) recordings were performed by positioning glass electrodes filled with artificial cerebrospinal fluid (ACSF) in the CA1 stratum radiatum to record Field Excitatory Post-Synaptic Potentials (fEPSPs) evoked by local stimulation (0.1 ms) of Schaffer collateral fibers using a bipolar concentric electrode placed laterally to the recoding electrode (approximately 150 μm). Following a steady baseline of 15 minutes, potentiation was induced with three theta-burst stimulations (TBS; 15 second interval), each one involving a single train of 10 bursts at 5 Hz, where each burst was composed of four pulses at 100 Hz (strong stimulation). The fEPSP slopes following tetanic stimulation were normalized to the average of the slopes of the fEPSPs acquired during the baseline.
(§1) Controls were wild-type mice and J20 mice injected with PBS.

Series [2] deals with J20 mice. Description: Dendritic spine density in hippocampus of J20 mice. Format: in vivo. Conditions: single TOP injection 275 μg. As to the method: (§2) The protocol for diolistic labeling of neurons was adapted from Gan et al. 2000 and Gan et al. 2009. Briefly, 100 mg of tungsten particles (1.1 μm diameter; Bio-Rad) were thoroughly precipitated with 5.0 mg of lipophilic dye (DiI; ThermoFisher) and dissolved in 100 μl of methylene chloride. Dye-coated particles were shot 2-3 times into the cells using the Helios gene gun system (Bio-Rad) and left in 0.1 M PBS overnight to allow dye diffusion along neuronal processes. Cells were post-fixed with 4% paraformaldehyde (Pierce) for 1 hour to preserve staining, then mounted onto glass slides using Gel Mount (Biomeda) and stored at 4° C. in the dark.
(§3) Labeled neurons were imaged using the Laser Scanning Microscope (LSM) 510 Meta confocal microscope (Zeiss), equipped with 40×1.3 NA and 100×1.4 NA oil-immersion objectives. The NIH Image software program ImageJ was used the quantify diolistic-labeled cultured neurons. An average of 12 compressed images (20 μm thick) consisting of pyramidal neurons were quantified for each treatment. Spines were counted with NeuronStudio software in a blinded manner and spine density was represented in number of spine per μm dendritic length. Statistical analysis was performed using the statistics package GraphPad Prism.
as §1

For series [3] the following is noted: usual marketed dosages, daily for five days or weekly; cited from earlier work.
The subject of the next series is wild-type mice. Description: Dendritic spine density in hippocampus of wild-type mice. Format: in vivo. To be noted: single TOP injection 275 μg. As to the method: as §2, §3
Controls were wild type mice injected with PBS.

Another series concerns PSD95. As to the kind of experiment: Western blot of PSD95 in hippocampal neurons. Format: cell-based, rat. Conditions: neurons pretreated with 300 nM TOP, oAβ for 24 hours. On the procedure:
Whole frozen mouse hippocampi, human brain specimens, and cultured cells were homogenized in RIPA buffer (ThermoFisher) supplemented with protease and phosphatase inhibitor cocktail (ThermoFisher), using a Teflon dounce homogenizer and centrifuged at 14,000 rpm for 10 minutes at 4° C. Supernatants were collected, normalized by BCA assay (ThermoFisher), and prepared for loading using sample buffer (SB) 4× (ThermoFisher) and dithiothreitol (DTT) 10× (ThermoFisher).
To further test whether increasing Ube3A could rescue the effects of oAβ, cultured primary hippocampal neurons (14 DIV) were pretreated with 300 nM of TOP or control PBS. The neurons were then treated with oAβ for 24 hours, and whole cell lysates prepared for Western blot analysis, or fixed for microscopy.
Cells were also assessed for localization of PSD95 and NMDAR1, markers of postsynaptic terminals. Cells treated with TOP had increased levels of PSD95 and NMDAR1 (FIGS. 11B and 11C).
(In western blotting, separated proteins are transferred to a membrane and probed.)

The next series deals with amyloid plaques. Description: Amyloid plaque histology (6E10) in J20 mice. Format: in vivo. To be noted: TOP treated J20 mice at 12.5 months of age vs J20 mice treated with PBS. The text has this:
Immunolabeling was done on 30 μm brain sections from the J20 TOP treated mice and PBS treated wild-type and J20 mice. Staining was done using the anti-Aβ antibody 6E10 (Covance) and GFAP (Cell Signaling). Plaque load and astrocytosis were quantified using ImageJ. Total plaque area was expressed as a percentage of the total hippocampal area.

A further series deals with Ube3A mRNA. Description: qPCR of Ube3A mRNA in hippocampal neurons. Format: cell-based, rat. To be noted: oAβ for 24 hours (results not shown). On the procedure:
Neurons were lysed and total RNA was extracted using TRIzol reagent (Ambion) following the manufacturer's protocol. RNA concentration and purity were assessed by measuring the optical density at 260 and 280 nm with a NanoDrop (Thermo Scientific). cDNA was synthesized using the first-strand cDNA synthesis kit (Origene) with 1 μg of total RNA, following the manufacturer's instructions. Quantitative real-time PCR was performed using FastStart SYBR Green Master Mix (Roche) and an Eppendorf Realplex Mastercyler with the following cycle settings: 1 cycle at 95° C. for 10 min and 40 cycles of amplification, 95° C. for 15 s, 58-60° C. for 30-60 s, 72° C. for 30-60 s. The amounts of Ube3A mRNA were quantified and normalized to GAPDH mRNA using the following primer pairs: Ube3A forward 5′-[…]-3′ (SEQ ID NO: 3) and reverse 5′-[…]—3′ (SEQ ID NO: 4). The threshold cycles were determined and normalized to the threshold cycles of a GAPDH gene. Relative mRNAs levels for Ube3A were expressed as a fold induction in an experimental condition compared with a control condition.
In mammals, the Ube3A gene is subject to genomic imprinting, whereby only the maternal allele is expressed in neurons. The paternal allele is silenced through the expression of a Ube3A-antisense (Ube3A-ATS), transcribed as part of a large non-coding antisense transcript (Runte et al. 2001).
Background: Quantitative PCR measures a nucleic acid by following its amplification.

For a further series, the system named is Ube3A. As to the kind of experiment: Ube3A levels in astrocyte-enriched cultures. Format: cell-based, rat. Conditions: astrocyte-enriched cultures treated with oAβ (results not shown). On the procedure:
Since Ube3A is also expressed in astrocytes (Grier et al. 2015), it was determined whether Ube3A levels were also altered in these cells.

For the next series, the system named is c-Abl. Description: Western blot of phosphorylated c-Abl. Format: cell-based, rat. To be noted: oAβ treated vs vehicle (FIG. 4). The text has this:
FIG. 4A is a quantification of Western blots of phosphorylated c-Abl in vehicle treated (control) and DPH treated hippocampal neurons. FIG. 4B is a quantification of Western blots of phosphorylated Ube3A in vehicle treated (control) and DPH treated hippocampal neurons. […] FIG. 4D is a quantification from Western blots of phosphorylated Ube3A in vehicle treated (control), oAβ treated, and oAβ with STI treated hippocampal neurons. Graphs represent mean values and standard deviation. Significance determined by unpaired student's t-test in FIGS. 4A and 4B, and one-way ANOVA followed by Tukey Post Hoc multiple comparisons in FIGS. 4C and 4D.
It was hypothesized that oAβ could affect the ligase function of Ube3A. One important regulatory mechanism of Ube3A is through c-Abl-mediated phosphorylation tyrosine residue 636 (Y636), which impairs its E3 ligase activity (Chan et al. 2013). […] Since phospho-Ube3A antibodies are not available it was decided to test the hypothesis in B35 neuroblastoma cell line overexpressing HA-tagged Ube3A for immunoprecipitation.

On to `CC[C@@]1(O)C(=O)OCc2c1cc1n(c2=O)Cc2cc3c(CN(C)C)c(O)ccc3nc2-1` [TOP, topotecan], for which the “LTP in hippocampal slices” value in the series on J20 mice [1] is on record as “Enhancement”. Moreover, the dendritic spine density result in the series with J20 mice [2] is on record as “significant increase”. Besides, in [3], the hematologic toxicity entry was “reversible manageable” and the nonhematologic toxicity entry is “mild”. Also, the dendritic spine density result with wild-type mice was “significant increase”. For the same molecule, the “levels of PSD95” value in the series with PSD95 is listed as “increased”. In addition, the “accumulation of amyloid plaques” value with amyloid plaques is reported as “approximately equal accumulation”.
As for “oAβ: synthetic soluble oligomeric Aβ1-42”, the “levels of Ube3A mRNA” value in the series with Ube3A mRNA is listed as “did not show any differences”. Moreover, the Ube3A levels result in the series with Ube3A is “modest, but significant increase”. Further, in the series with c-Abl, the c-Abl phosphorylation result is recorded as “induces”.
